Where a name gives a salt, the structure may show the parent alone. Read-outs that look alike come from different tables or passages of the source.
Key:
[1] = ICH toxicity limits, cited from earlier work; for Limits: residual solvent concentration in carrier; for Permissible Daily Exposure: residual solvent
[2] = type: physicochemical; conditions: for extraction efficiency (output/input acetone concentration in water): organic wash:aqueous 4:1; for extraction efficiency, comparison in words: with and without pyruvate in solution
[3] = Liquid-liquid purification system, Example 1 (samples of phases analyzed)
Method: A system was prepared comprising a first vessel, a second vessel fluidly connected to the first vessel, and a third vessel fluidly connected to the second vessel. The vessels and the fluid path were covered by a defined magnetic field provided by solenoids to prevent undesired hyperpolarisation loss during the processing of a solution through the system.
The mixture was bubbled with nitrogen gas, and 1.0 mL of base (400 mM NaOD in D2O) was injected into Vessel 1 to cleave the pyruvate ester into sodium pyruvate and the corresponding unbonded sidearm.
The solution in Vessel 1 was then subjected to a first washing step. 20 mL of organic washing solvent (e.g., diethyl ether or tert-butyl methyl ether) were injected into the solution, and then agitated using nitrogen gas bubbling. The mixture was then allowed to settle for about 10 seconds until a clear phase separation between the aqueous phase (lower phase) and the organic phase (upper phase) had formed.
The aqueous phase from Vessel 1 was pumped into Vessel 2, which had been prefilled with 20 mL of the same organic washing solvent (e.g., diethyl ether or tert-butyl methyl ether). The mixture was again agitated using nitrogen gas bubbling, and allowed to settle for about 10 seconds until a clear phase separation between the aqueous phase (lower phase) and the organic phase (upper phase) had formed. […]

[4] = SABRE catalyst in acetone extraction study (proton NMR of both phases); type: physicochemical; conditions: 1 ml Acetone-d6, 6 ml MTBE, 1 ml D2O

Compound | Limits [1] [ppm] | Permissible Daily Exposure [1] [mg/day] | other results
CCO [Ethanol] | 5000 | 50 | –
COC(C)=O [Methyl acetate] | 5000 | 50 | –
COC(C)(C)C [tert-Butylmethyl ether] | 5000 | 50 | extraction efficiency (output/input acetone concentration in water) ([2]; 2000 mM acetone, No Pyruvate): 0.33; extraction efficiency (output/input acetone concentration in water) ([2]; 2000 mM acetone, With Pyruvate): 0.27; extraction efficiency (output/input acetone concentration in water) ([2]; 9000 mM acetone, No Pyruvate): 0.24; extraction efficiency (output/input acetone concentration in water) ([2]; 9000 mM acetone, With Pyruvate): 0.23; extraction efficiency, comparison in words [2]: effective extraction efficiency
C=C(Cl)Cl [1,1-Dichloroethene] | 8 | – | –
CCCCC(C)=O [Methylbutyl ketone] | 50 | 0.5 | –
c1ccc2c(c1)CCCC2 [Tetralin] | 100 | 1.0 | –
CC(=O)CC(C)C [Methylisobutyl ketone] | 5000 | 50 | –
ClCCCl [1,2-Dichloroethane] | 5 | – | –
CN1CCCC1=O [N-Methylpyrrolidone] | 530 | 15.3 | –
NC=O [Formamide] | 220 | 2.2 | –
CC(=O)C(=O)[O-].[Na+] [sodium pyruvate] | – | – | pH ([3]; Vessel 1, after hydrolysis and phosphate buffer, acetone/D2O): 6-9; pH ([3]; Vessel 3, final samples): 6-9
ClC(Cl)(Cl)Cl [Carbon tetrachloride] | 4 | – | –
CC#N [Acetonitrile] | 410 | 4.1 | –
CN(C)C=O [N,N-Dimethylformamide] | 880 | – | –
CCOC=O [Ethyl formate] | 5000 | 50 | –
CCOCC [Diethyl ether] | – | – | extraction efficiency (output/input acetone concentration in water) ([2]; 9000 mM acetone, No Pyruvate): 0.29; extraction efficiency, comparison in words [2]: effective extraction efficiency
Xylene | 2170 | 21.7 | –

Compound | Limits [1] [ppm] | Permissible Daily Exposure [1] [mg/day] | other results
CCOCCO [2-Ethoxyethanol] | 160 | 1.6 | –
CCCCCC [Hexane] | 290 | 2.9 | –
CCCOC(C)=O [Propyl acetate] | 5000 | 50 | –
C[S+](C)[O-] [Dimethyl sulfoxide] | 5000 | 50 | –
CCCCOC(C)=O [Butyl acetate] | 5000 | 50 | –
ClC=C(Cl)Cl [1,1,2-Trichloroethene] | 80 | 0.8 | –
ClCCl [Dichloromethane] | 600 | 6.0 | extraction efficiency (output/input acetone concentration in water) ([2]; 2000 mM acetone, With Pyruvate): 0.04; extraction efficiency (output/input acetone concentration in water) ([2]; 9000 mM acetone, No Pyruvate): 0.07; extraction efficiency (output/input acetone concentration in water) ([2]; 9000 mM acetone, With Pyruvate): 0.06; extraction efficiency, comparison in words [2]: best extraction efficiency
COc1ccccc1 [Anisole] | 5000 | 50 | –
CC(Cl)(Cl)Cl [1,1,1-Trichloroethane] | 1500 | – | –
CC(C)=O [Acetone] | 5000 | 50 | concentration in the aqueous phase after washing [4]: lower in the aqueous phase after washing
CCCCCO [1-Pentanol] | 5000 | 50 | –
CCCCCCC [Heptane] | 5000 | 50 | –
IrIMes(COD) PF6 | – | – | concentration in the aqueous phase after washing [4]: lower in the aqueous phase after washing; observability in NMR spectrum of the phases [4]: observable only in one of the phases and not in the other
C1CCCCC1 [Cyclohexane] | 3880 | 38.8 | –
CC(=O)O [Acetic acid] | 5000 | – | –
CC1CCCCC1 [Methylcyclohexane] | 1180 | 11.8 | –
COCCOC [1,2-Dimethoxyethane] | 100 | 1.0 | –

Reference: patent publication US20240299593A1, “SYSTEMS AND METHODS FOR GENERATION OF HYPERPOLARIZED MATERIALS” (NVISION IMAGING TECHNOLOGIES GMBH, priority 2021, published 2024)
